Source: patent US20230271959A1, “HETEROCYCLIC COMPOUND AS BCL-2 INHIBITOR” (Beijing Innocare Pharma Tech Co., Ltd., priority 2020, published 2023)

Experiments:
[1] = target: T1, human recombinant Bcl-2 protein (Homo sapiens, UniProt P10415); test: Fluorescence polarization test for inhibition of BCL-2 binding to FITC-BIM; conditions: 5 nM BCL-2, 5 nM FITC-BIM, read-out: FP BCL-2 IC50
T1 construct: purchased Beijing Yigiao Shenzhou Biotechnology Co., Ltd. 10195-HOSE
Protocol: Fluorescence polarization assay was used to evaluate the effect of the compounds of the present invention on the biological activity of BCL-2.
The effects of the compounds on the biological activity of BCL-2 were evaluated by determining the effects of the compounds on the binding activity of BCL-2 to leukemia pro-apoptotic protein (BIM) using an affinity assay method based on the principle of fluorescence polarization. The reaction buffer comprises the following components: PBS (pH 7.4, 3 mM Na2HPO4, 155 mM NaCl, 1 mM KH2PO4), 1 mM DTT; human recombinant Bcl-2 protein (Item No. 10195-HOSE) (purchased from Beijing Yigiao Shenzhou Biotechnology Co., Ltd.) was diluted to 5 nM with the reaction buffer; FITC-labeled BIM polypeptide (purchased from Nanjing GenScript Biotechnology Co., Ltd.) was diluted to 5 nM with the reaction buffer.
The compounds were dissolved in 100% DMSO and diluted to 0.1, 1, 10 μM, followed by 4-fold serial dilutions with DMSO to a minimum concentration of 0.0061, 0.061, 0.61 nM, each concentration point was further diluted 50-fold with the reaction buffer.
3 μL of solution containing the compound and 12 μL of solution containing BCL-2 were added to the black 384-well assay plate, mixed well, and incubated at room temperature for 15 minutes. Subsequently, 15 μL of FITC-BIM solution was added, and the reaction mixture was incubated at room temperature for 30 minutes in dark place, and then the fluorescence polarization was detected immediately on an Envision multi-mode reader (Perkin Elmer), with 480 nm as the excitation wavelength and 535 nm as the emission wavelength. In this experiment, the group without BCL-2 protein was used as a negative control (100% inhibition), and the group with BCL-2 protein but without the compound was used as a positive control (0% inhibition). The inhibition percentage of the compound to the affinity of BCL-2 can be calculated using the following equation: […]
(§1) The IC50 of the compound was calculated from 8 concentration points using XLfit (ID Business Solutions Ltd., UK) software by the following equation:
(§2) Y=Bottom+(Top−Bottom)/(1+10^((log IC50−X)*slope factor))
(§3) where Y is the inhibition percentage, X is the logarithm of the concentration of the compound to be tested, Bottom is the maximum inhibition percentage, Top is the minimum inhibition percentage, and slope factor is the slope coefficient of the curve.

[2] = target: T2, human recombinant Bcl-XL protein (Homo sapiens, UniProt Q07817); test: Fluorescence polarization test for inhibition of BCL-XL binding to FITC-BIM; conditions: 10 nM BCL-XL, 10 nM FITC-BIM, read-out: FP BCL-XL IC50
T2 construct: purchased Beijing Yiqiao Shenzhou Biotechnology Co., Ltd. 10455-H0SE
Protocol: Fluorescence polarization assay was used to evaluate the effect of the compounds of the present invention on the biological activity of BCL-XL.
The effects of the compounds on the biological activity of BCL-XL were evaluated by detecting the effects of the compounds on the binding activity of BCL-XL to BIM using an affinity assay method based on the principle of fluorescence polarization. The reaction buffer contains the following components: PBS (pH 7.4, 3 mM Na2HPO4, 155 mM NaCl, 1 mM KH2PO4), 1 mM DTT; human recombinant Bcl-XL protein (Item No. 10455-H0SE) (purchased from Beijing Yiqiao Shenzhou Biotechnology Co., Ltd.) was diluted to 10 nM with reaction buffer; FITC-labeled BIM polypeptide (purchased from Nanjing GenScript Biotechnology Co., Ltd) was diluted to 10 nM with reaction buffer.
The compounds were dissolved in 100% DMSO and diluted to 1 μM, followed by 4-fold serial dilutions in DMSO to a minimum concentration of 0.061 nM, each concentration point was further diluted 50-fold with reaction buffer.
3 μL of solution containing the compound and 12 μL of solution containing BCL-XL were added to the black 384-well assay plate, mixed well, and incubated at room temperature for 15 minutes. Subsequently, 15 μL of FITC-BIM solution was added, and the reaction mixture was incubated at room temperature for 30 minutes in the dark place, and then the fluorescence polarization was detected immediately on an Envision multi-plate reader (Perkin Elmer), with 480 nm as the excitation wavelength and 535 nm as the emission wavelength. In this experiment, the group without BCL-XL protein was used as a negative control (100% inhibition), and the group with BCL-XL protein but without the compound was added as a positive control (0% inhibition). The inhibition percentage of the compound to the affinity of BCL-XL can be calculated using the following equation: […]
as §1, §2, §3

[3] = tested on: RS4;11 cells (acute lymphoblastic leukemia cells); test: RS4;11 cell proliferation, CellTilter-Glo luminescence cell viability assay; type: cell-based; conditions: Homo sapiens, RS4-11; CTG readout after 48 hours
Protocol: The effects of the compounds of the present invention on the proliferation of RS4;11 cells were evaluated using a luminescence cell viability assay.
A CellTilter-Glo (CTG) Assay Kit is used to detect ATP, a key indicator of the metabolism of living cells, through a unique, highly sensitive and stable luciferase. The luminescent signal generated in the assay is proportional to the number of the viable cells in the medium, therefore the cell proliferation of RS4;11 can be determined.
CellTilter-Glo reagent (Promega, G7572) is composed of CellTilter-Glo lyophilized powder and CellTilter-Glo buffer, and the lyophilized powder can be dissolved in the buffer for use.
RS4;11 cells (ATCC, CRL-1873) were cultured in RPMI1640 complete medium (Thermofisher, 72400-047) containing 10% FBS (GBICO, 10099-141) and 100 units/ml penicillin-streptomycin solution (Thermofisher, 15140122)), when the cells covered 80-90% in the culture vessel, they were digested and dispersed with 0.25% trypsin (containing EDTA) (Thermofisher, 25200056) and then planted in a white 384-well plate (Thermofisher, 164610), and then the 384-well plate was incubated overnight in a 37° C., 5% CO2 incubator. Compounds were dissolved in 100% DMSO and diluted to […], followed by 4-fold serial dilutions with DMSO to a minimum concentration of 0.061 μM, and each concentration point was further diluted 50-fold with FBS-free RPMI1640 medium. If the IC50 of the compound is very low, the initial concentration of the compound can be reduced. After overnight, 3 μL of the compound diluted in the medium was added to each well, and the mixture was gently centrifuged to mix. The group without cells was used as a negative control (100% inhibition), and the group with 0.2% DMSO was used as a positive control (0% inhibition). The 384-well plate was placed in a 37° C., 5% CO2 incubator for further cultivation. After 48 hours, the plate was taken out and equilibrated to room temperature. 15 μl of CTG reagent was added to each well, the plate was shaken gently for 3 minutes to make sure that the cell lysis was carried out thoroughly, then the plate was kept for 10 minutes to stabilize the luminescence signal, then the luminescence signal was read by EnVision (Perkin Elmer).
The inhibition percentage of the compounds to RS4;11 cell proliferation can be calculated using the following equation:
Inhibition Percentage=100−100*(signal compound-signal negative control)/(signal positive control-signal negative control)
as §1
Y=Bottom+(Top−Bottom)/(1+10^((Log IC50−X)*slope factor))
wherein, Y is the inhibition percentage, Bottom is the bottom plateau of the curve (the bottom plateau value of the S-shaped curve), Top is the top plateau of the curve (the top plateau value of the S-shaped curve), and X is the logarithm of the concentration of the compound to be tested.

T2 sequence (Q07817 whole entry): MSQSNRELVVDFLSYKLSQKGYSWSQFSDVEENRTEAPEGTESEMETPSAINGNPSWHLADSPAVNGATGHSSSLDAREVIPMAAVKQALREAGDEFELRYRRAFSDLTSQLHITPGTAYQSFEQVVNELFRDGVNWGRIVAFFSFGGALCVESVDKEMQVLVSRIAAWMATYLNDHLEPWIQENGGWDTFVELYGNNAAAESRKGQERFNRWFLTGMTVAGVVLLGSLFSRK
T1 sequence (P10415 whole entry): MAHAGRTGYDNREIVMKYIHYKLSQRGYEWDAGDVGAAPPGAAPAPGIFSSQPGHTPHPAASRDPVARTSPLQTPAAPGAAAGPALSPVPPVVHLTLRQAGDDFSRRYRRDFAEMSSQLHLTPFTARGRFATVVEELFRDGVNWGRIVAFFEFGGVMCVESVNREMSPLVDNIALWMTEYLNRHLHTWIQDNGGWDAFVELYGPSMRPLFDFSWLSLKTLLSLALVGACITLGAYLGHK

| Structure (SMILES) | IC50 [1] | IC50 [2] | IC50 [3] |
| --- | --- | --- | --- |
| C[C@@H]1CN(c2ccc(C(=O)NS(=O)(=O)c3cc(F)c(NC[C@H]4COCCO4)c([N+](=O)[O-])c3)c(Oc3cnc4[nH]ccc4c3)c2)CCN1CC1=C(c2ccc(Cl)cc2)CC(C)(C)CC1 [Example 6, N-((4-((((S)-1,4-dioxan-2-yl)methyl)amino)-3-fluoro-5-nitrophenyl)sulfonyl)-2-((1H-pyrrolo[2,3-b]pyridin-5-yl)oxy)-4-((R)-4-((4′-chloro-5,5-dimethyl-3,4,5,6-tetrahydro-[1,1′-biphenyl]-2-yl)methyl)-3-methylpiperazin-1-yl) benzamide] | 0.9 nM | > 1000 nM | 2.37 nM |
| C[C@H]1CN(c2ccc(C(=O)NS(=O)(=O)c3cc(F)c(NCC4CCOCC4)c([N+](=O)[O-])c3)c(Oc3cnc4[nH]ccc4c3)c2)CCN1CC1=C(c2ccc(Cl)cc2)CC(C)(C)CC1 [Example 7, (S)-2-((1H-pyrrolo[2,3-b]pyridin-5-yl)oxy)-(4-4-((4′-chloro-5,5-dimethyl-3,4,5,6-tetrahydro-[1,1′-biphenyl]-2-yl)methyl)-3-methylpiperazin-1-yl)-N-((3-fluoro-5-nitro-4-(((tetrahydro-2H-pyran-4-yl)methyl)amino)phenyl)sulfonyl) benzamide] | > 100 nM | > 1000 nM | > 500 nM |
| C[C@@H]1CN(CC2=C(c3ccc(Cl)cc3)CC(C)(C)CC2)CCN1c1ccc(C(=O)NS(=O)(=O)c2ccc(NCC3CCOCC3)c([N+](=O)[O-])c2)c(Oc2cnc3[nH]ccc3c2)c1 [Example 8, (R)-2-((1H-pyrrolo[2,3-b]pyridin-5-yl)oxy)-4-(4-((4′-chloro-5,5-dimethyl-3,4,5,6-tetrahydro-[1,1′-biphenyl]-2-yl)methyl)-2-methylpiperazin-1-yl)-N-((3-nitro-4-(((tetrahydro-2H-pyran-4-yl)methyl)amino)phenyl)sulfonyl)benzamide] | 4.55 nM | > 1000 nM | 6.2 nM |
| C[C@@H]1CN(CC2=C(c3ccc(Cl)cc3)CC(C)(C)CC2)CCN1c1ccc(C(=O)NS(=O)(=O)c2ccc(NCC3CCN(C4COC4)CC3)c([N+](=O)[O-])c2)c(Oc2cnc3[nH]ccc3c2)c1 [Example 9, (R)-2-((1H-pyrrolo[2,3-b]pyridin-5-yl)oxy)-4-(4-((4′-chloro-5,5-dimethyl-3,4,5,6-tetrahydro-[1,1′-biphenyl]-2-yl)methyl)-2-methylpiperazin-1-yl)-N-((3-nitro-4-(((1-(3-oxetan-yl)piperidin-4-yl)methyl)amino)phenyl)sulfonyl) benzamide] | 5.03 nM | > 1000 nM | 26 nM |
| C[C@@H]1CN(CC2=C(c3ccc(Cl)cc3)CC(C)(C)CC2)CCN1c1ccc(C(=O)NS(=O)(=O)c2cc(F)c(NCC3CCN(C4COC4)CC3)c([N+](=O)[O-])c2)c(Oc2cnc3[nH]ccc3c2)c1 [Example 10, (R)-2-((1H-pyrrolo[2,3-b]pyridin-5-yl)oxy)-4-(4-((4′-chloro-5,5-dimethyl-3,4,5,6-tetrahydro-[1,1′-biphenyl]-2-yl)methyl)-2-methylpiperazin-1-yl)-N-((3-fluoro-5-nitro-4-(((1-(3-oxetanyl)piperidin-4-yl)methyl)amino)phenyl)sulfonyl)benzamide] | 8.21 nM | > 1000 nM | 68 nM |
| C[C@@H]1CN(CC2=C(c3ccc(Cl)cc3)CC(C)(C)CC2)CCN1c1ccc(C(=O)NS(=O)(=O)c2cc(F)c(NCC3CCOCC3)c([N+](=O)[O-])c2)c(Oc2cnc3[nH]ccc3c2)c1 [Example 11] | 12.8 nM | > 1000 nM | 42 nM |
| C[C@@H]1CN(CC2=C(c3ccc(Cl)cc3)CC(C)(C)CC2)CCN1c1ccc(C(=O)NS(=O)(=O)c2ccc(NC[C@H]3COCCO3)c([N+](=O)[O-])c2)c(Oc2cnc3[nH]ccc3c2)c1 [Example 12] | 4.89 nM | > 1000 nM | 16 nM |
